Here are results for 60 compounds from the METLIN SMRT retention time set (Domingo-Almenara et al. 2019).

The data set in a line: gradient 5% acetonitrile 3 min, to 50% in 2 min, to 85% in 15 min, held 3 min, 100 µL/min. The note with it: column: Zorbax Extend-C18 2.1 x 50 mm; eluents: water / acetonitrile, 0.1% formic acid. An outline of the steps: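 Retention times come from adduct peaks that were picked computationally and then checked by hand. The standards, pure and pooled in mixtures of ~100 molecules, were run on a Zorbax Extend-C18 column (2.1 × 50 mm, 1.8 μm) at 100 μL/min with water and acetonitrile, each with 0.1% formic acid. Detection was by quadrupole time-of-flight mass spectrometry in positive and negative ionization mode, with a dead volume of 40 μL and a dwell volume of 900 μL.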
`CCOc1cccc(-c2noc(Cn3ccn(-c4ccccc4)c(=O)c3=O)n2)c1`: the RP-LC retention time came out at 858 s.
Turning to `Cc1sc(S(=O)(=O)N2CCSCC2)cc1NC(=O)c1ccc(C(C)(C)C)cc1`, the RP-LC retention time was 1150 s.
`O=C(NCCCN1CCCCC1)c1cc(=O)n2c(nc3ccccc32)s1` had an RP-LC retention time of 621 s.
The same measure for `COc1ccc(N2CC(c3noc(-c4ccc(N(C)C)cc4)n3)CC2=O)cc1` (stereo not given): 889 s; for `O=C(Nc1ccccc1C(F)(F)F)N1CCC(n2cnnc2C2CC2)C1` (stereo not given): 640 s.
Compound `CCc1ccc(Nc2nc(C(=O)NC)nc3ccccc23)cc1` gave an RP-LC retention time of 708 s.
The figure for `CCOc1ccc(NC(=O)C2CCCN(c3nccnc3Sc3ccccc3)C2)cc1` (stereo not given) is 1100 s; for `Cc1[nH]c(C)c(S(=O)(=O)N2CCC(C(=O)Nc3cc(F)ccc3F)CC2)c1C(=O)N1CCCC1` it is 644 s.
In the case of `CCC(CC)C(=O)Nc1c(-c2ccccc2)nc2cc(C)ccn12`, the RP-LC retention time was 654 s.
The same measure for `N#Cc1ccc2[nH]cc(CCCCN3CCN(c4ccc5oc(C(N)=O)cc5c4)CC3)c2c1`: 702 s.
The same measure for `Cc1ccc(NC(=O)Nc2ccc(NC(=O)N3CCC(C(=O)NCC4CC4)CC3)cc2)cc1`: 740 s.
The figure for `COc1cccc(NC(=O)Nc2ccc(CC(N)=O)cc2)c1OC` is 636 s; for `CC1CCc2c(sc(NC(=O)Cc3ccc(Cl)s3)c2C(N)=O)C1` (stereo not given) it is 1000 s.
For the compound `O=C(NCCN1CCCCC1)c1ccc(-c2ccc(N3CCSCC3)nc2)cc1`, the RP-LC retention time came to 591 s.
For the compound `COCCCNC(=O)c1nccnc1NC(=O)c1ccc(C)cc1`, the RP-LC retention time amounted to 791 s.
The same measure for `CNC(=O)c1cnn2c3c(cnc12)CCCCCC3`: 831 s; for `C[C@H]1CC2C3CCC4=CC(=O)C=C[C@]4(C)[C@@]3(Cl)[C@@H](O)C[C@]2(C)[C@@]1(O)C(=O)CO` (stereo not given in full): 832 s.
`CCN(CC)c1ncc2c(n1)CCC(C(=O)Nc1ccc(OC)cc1C)C2` (stereo not given): the RP-LC retention time was 674 s.
In turn, `CCOC(=O)c1sc(NC(=O)c2cc3ccccc3o2)nc1C` returned an RP-LC retention time of 974 s.
As to `CC(C)CN1C(=O)CCc2cc(NS(=O)(=O)c3ccc(Cl)cc3)ccc21`, the RP-LC retention time came to 946 s.
Take `Cc1ccc(-c2csc(-n3nc(C)c(CC(=O)N4CCc5ccccc5C4)c3C)n2)cc1`: the RP-LC retention time was found to be 1310 s.
Regarding `Cc1cc(NC(=O)Cn2nc3c4sc(N(C)C)nc4ncn3c2=O)ccc1Br`, the RP-LC retention time came out at 778 s.
For the compound `CCn1c(C(=O)N2CCCC(C(=O)NCCc3ccc(S(N)(=O)=O)cc3)C2)cc2sccc21` (stereo not given), the RP-LC retention time came out at 733 s.
As for `NC(=O)C1CCN(C2CC(=O)N(c3ccc(Cl)c(Cl)c3)C2=O)CC1` (stereo not given), the RP-LC retention time is 611 s.
In turn, `CCCNC(=O)N(C1CCOCC1)C1CCN(C(=O)CCc2c[nH]c3ccccc23)CC1` showed an RP-LC retention time of 730 s.
The same measure for `CN(C)c1ccc(/C=C2\C=Cc3ccccc32)cc1`: 1240 s; for `Cc1cccc(Cn2c(CN3CCC(C(=O)NCCc4ccco4)CC3)cc3ccccc32)c1`: 800 s; for `COc1cccc(/C=C/C(=O)NC2(c3nc(C(C)C)no3)CCCCC2)c1`: 1050 s.
As to `CC(=O)c1cccc(NC(=O)c2cnn3c4c(cnc23)CCCCCC4)c1`, the RP-LC retention time turned out to be 1030 s.
The figure for `COC(=O)c1sccc1NC(=O)N1CCCC1c1nc(-c2ccccc2)no1` (stereo not given) is 1050 s.
The figure for `COc1ccc(-n2ccc(=O)c(-c3nc(-c4ccccc4)no3)n2)cc1` is 856 s; for `CCC1(C(=O)NCc2ccc(Cl)cc2)CCCCC(=O)N1` (stereo not given) it is 738 s; for `CCCN(CC1CCOC1)C(=O)Nc1cccc(Br)c1` (stereo not given) it is 876 s.
The compound `O=C(Nc1onc2c1CSC2)c1cccc(-n2cnnn2)c1` yielded an RP-LC retention time of 647 s.
The compound `COc1ccc(-c2nc(C3CC(=O)N(c4ccc(Cl)cc4)C3)no2)cc1` (stereo not given) showed an RP-LC retention time of 1060 s.
The same measure for `CCN(CC)C(=O)c1ccc(C2=CC3(CCNCC3)Oc3cccc(O)c32)cc1`: 725 s.
The same measure for `CCOC(=O)C1CCN(C(=O)Cn2c3ccccc3c3cnn(C)c(=O)c32)CC1`: 775 s.
The same measure for `CCCN(CCC)CCCNC(=O)C1CCCN(c2ncc(-c3cccc(F)c3)cn2)C1` (stereo not given): 747 s; for `C[C@H]1CN(S(=O)(=O)c2ccc(F)cc2)C[C@@H]1c1nc(-c2ccccc2)no1`: 1120 s.
For the compound `COc1ccc2nc(C(=O)NCc3ccccc3)cn2n1`, the RP-LC retention time is 772 s.
The same measure for `Cc1cccc(NC(=O)N2CCCC2c2nc(-c3ccc(F)cc3F)no2)c1C` (stereo not given): 981 s.
In turn, `CCN(CC)C(=O)c1ccc(-c2nc3cc(NS(=O)(=O)c4ccccc4F)ccc3n2C)cc1` came in with an RP-LC retention time of 679 s.
The same measure for `Cc1nc(CSc2cc(C)c3ccccc3n2)cs1`: 969 s; for `O=C(Nc1cnc(N2CCCC2)nc1)c1cccc(F)c1`: 716 s.
The figure for `COc1ccc(/C=C/c2nc(-c3ccc4oc(C)nc4c3)no2)cc1` is 1150 s; for `O=C(c1csc(N2CCN(c3ccccc3)CC2)n1)N1CCC(N2CCCCC2)CC1` it is 668 s; for `Cc1ccc(F)cc1S(=O)(=O)N1CCN(c2nc3ccncc3n(C)c2=O)CC1` it is 586 s.
On to `O=C(NC1CCCC1)c1nc(Cn2c(=O)oc3ccc(Cl)cc32)no1`, for which the RP-LC retention time is 931 s.
In turn, `CC(=O)N=c1sc(S(N)(=O)=O)nn1C` had an RP-LC retention time of 644 s.
Take `Cc1ccccc1Cn1nc2n(c1=O)CCCCC2`: the RP-LC retention time amounted to 772 s.
`O=C(Nc1cccc2ccccc12)c1ccccc1`: the RP-LC retention time came to 923 s.
The figure for `O=C(CCCn1nc(-c2cccs2)ccc1=O)Nc1cccc2nsnc12` is 728 s; for `O=S(=O)(c1cccs1)N1CC(c2nc(-c3ccncc3)no2)C1` it is 679 s.
With `Cc1cccc(-c2nc(C3CCN(S(=O)(=O)c4ccc5c(c4)CCCC5)CC3)no2)c1`, the RP-LC retention time was determined as 1410 s.
The figure for `Cc1cnc(C(=O)N2CCCCCCN(C)C(=O)[C@@H]3CCC[C@@H]32)cn1` is 716 s.
The same measure for `CCN(Cc1ccccc1)C(=O)Cn1cc2c(n1)CCCCCC2`: 1020 s; for `Cc1ncsc1C1N(C2CCN(C(=O)c3cnccn3)CC2)C(=O)C12CCCC2` (stereo not given): 654 s; for `COc1ccc(-c2nc3cnccn3c2Nc2cc(C)cc(C)c2)cc1OC`: 874 s.
In turn, `CCC(=O)N1CCc2cc(N3CC(C(=O)Nc4ccc(OC)c(Cl)c4)CC3=O)ccc21` (stereo not given) had an RP-LC retention time of 779 s.
The compound `COc1ccc(-c2csc(Nc3cccnc3)n2)cc1OC` had an RP-LC retention time of 620 s.
